*1 amine or outer side, *2 acyl side, *3 side chain or, on linkers, in order; H or OH if unused. Where a SMILES comes first, the peptide text is derived from it. Bridges are numbered along the chain shown (N, C = ends). [ ]: non-standard residue; d: D form. The star is where a group is joined. ξ: configuration not given here. Phe(3-OMe,4-CONHMs) = COc1cc(C[C@H](N)C(=O)O)ccc1C(=O)NS(C)(=O)=O; Phe(3-CONHMe,4-OMe) = CNC(=O)c1cc(C[C@H](N)C(=O)O)ccc1OC; X18 = NN([C@@H](Cc1cccc(Cl)c1)C(=O)[*:2])[*:1]; NMePhe(3-Cl) = CN[C@@H](Cc1cccc(Cl)c1)C(=O)O; NMeW = CN[C@@H](Cc1c[nH]c2ccccc12)C(=O)O; NMehPhe = CN[C@@H](CCc1ccccc1)C(=O)O; Ethyl(2-morpholino) = C1CN(CC*)CCO1; X9 = O=C([C@@H](CN[*:1])COCCO)[*:2]; X6 = O=C([C@H](CCCCO)N[*:1])[*:2]; NMeF = CN[C@@H](Cc1ccccc1)C(=O)O; NMeGABA = CN(CCCC(=O)[*:2])[*:1]; NMeξIle = CC[C@H](C)C(NC)C(=O)O; NMeL = CN[C@@H](CC(C)C)C(=O)O; Propyl(2R-OH) = C[C@@H](O)C*; Butyl(3S-OH) = C[C@H](O)CC*; NMeV = CN[C@H](C(=O)O)C(C)C; NMeAbu = CC[C@H](NC)C(=O)O; NMeA = CN[C@@H](C)C(=O)O; Piperidide = C1CCN(*)CC1; Abu = CC[C@H](N)C(=O)O; CH2CMe2OH = CC(C)(O)C*; Me2NCH2CH2 = CN(C)CC*; NBuGly = CCCCNCC(=O)O; Isopentyl = CC(C)CC*; NPrGly = CCCNCC(=O)O; ξS = NC(CO)C(=O)O; Sar = CNCC(=O)O; tBu = CC(C)(C)*
test: in vitro; details: human, Caco-2, Caco-2

Compound | Papp [×10⁻⁶ cm/s]
CCCCN1CC(=O)N(C)[C@@H](Cc2ccccc2)C(=O)N(C)[C@@H](CC(C)C)C(=O)N[C@@H](C(C)C)C(=O)N(C)[C@@H](CC(C)C)C(=O)N[C@H](C(=O)N2CCCCC2)CC(=O)N(C)CC(=O)N(C)[C@@H](CC(C)C)C(=O)NC(COCCN2CCOCC2)C(=O)N(C)[C@@H](CC(C)C)C(=O)N[C@@H]([C@@H](C)O)C1=O (stereo partly drawn) [pd484] ([Sar][NMeL][ξS](Ethyl(2-morpholino))[NMeL]T[NBuGly][NMeF][NMeL]V[NMeL]D-Piperidide; lactam N-11) | 1.8
CCCN1CC(=O)N(C)[C@@H](C(C)C)C(=O)N[C@H](C(=O)N2CCCCC2)CC(=O)N(C)[C@@H](C)C(=O)N[C@@H](CC(C)C)C(=O)N(C)[C@@H](CC(C)C)C(=O)N(C)[C@@H](Cc2ccccc2)C(=O)NC(COCCN(C)C)C(=O)N(C)[C@@H](Cc2ccccc2)C(=O)N(C)[C@@H](CC(C)C)C(=O)N[C@@H]([C@@H](C)O)C1=O (stereo partly drawn) [pd57] ([NMeA]L[NMeL][NMeF][ξS](Me2NCH2CH2)[NMeF][NMeL]T[NPrGly][NMeV]D-Piperidide; lactam N-11) | 0.12

same assay, conditions: human, Caco-2, Caco-2 (cm/sec)

Compound | Papp [×10⁻⁶ cm/s]
CC(C)C[C@@H]1NC(=O)[C@H](Cc2ccccc2)N(C)C(=O)[C@@H](CC(C)C)NC(=O)C[C@@H](C(=O)N2CCCCC2)NC(=O)[C@H](CC(C)C)N(C)C(=O)[C@H](Cc2ccccc2)N(C)C(=O)[C@H](COC(C)(C)C)NC(=O)[C@H](CC(C)C)N(C)C(=O)CN(C)C(=O)[C@H](COC[C@@H](C)O)NC(=O)[C@H](CC(C)C)N(C)C1=O [AP81] ([dL][NMeF]L[NMeL]S(Propyl(2R-OH))[Sar][NMeL]S(tBu)[NMeF][NMeL]D-Piperidide; lactam N-11) | 0.69
CC[C@H](C)[C@@H]1NC(=O)[C@H](CC(C)C)N(C)C(=O)CCCN(C)C(=O)C[C@@H](C(=O)N2CCCCC2)NC(=O)[C@H](CC(C)C)N(C)C(=O)[C@H](CC(C)C)N(C)C(=O)[C@H]([C@@H](C)O)NC(=O)[C@H](CC(C)C)N(C)C(=O)[C@H](Cc2ccc(OC)c(C(=O)NC)c2)NC(=O)[C@H](CC(C)C)N(C)C(=O)[C@H](Cc2ccccc2)N(C)C1=O [AP38] ([NMeGABA][NMeL]I[NMeF][NMeL][Phe(3-CONHMe,4-OMe)][NMeL]T[NMeL][NMeL]D-Piperidide; lactam N-11) | 0.2
CC[C@H]1C(=O)N[C@@H](CCCCO)C(=O)N(C)[C@@H](CC(C)C)C(=O)N(C)[C@@H](Cc2cccc(Cl)c2)C(=O)N[C@@H](CC(C)C)C(=O)N(C)[C@@H](CCc2ccccc2)C(=O)N(C)[C@@H](CC(C)C)C(=O)N[C@@H]([C@@H](C)O)C(=O)N(C)CC(=O)N(C)[C@@H](CC(C)C)C(=O)N[C@H](C(=O)N2CCCCC2)CC(=O)N1C [Compound B09] ([NMeAbu][X6][NMeL][NMePhe(3-Cl)]L[NMehPhe][NMeL]T[Sar][NMeL]D-Piperidide; lactam N-11) | 0.31
CCCN1CC(=O)N(C)[C@@H](CC(C)C)C(=O)N[C@@H](COCCC(C)C)C(=O)N(C)[C@@H](Cc2ccccc2)C(=O)N(C)[C@@H](C(C)C)C(=O)N[C@H](C(=O)N2CCCCC2)CC(=O)N[C@H](C(C)C)C(=O)N(C)[C@@H](Cc2ccccc2)C(=O)N[C@@H](COCC(C)(C)O)C(=O)N(C)[C@@H](CC(C)C)C(=O)N[C@@H]([C@@H](C)O)C1=O [AP01] ([dV][NMeF]S(CH2CMe2OH)[NMeL]T[NPrGly][NMeL]S(Isopentyl)[NMeF][NMeV]D-Piperidide; lactam N-11) | 1.4
CCCCN1CC(=O)N(C)[C@@H](CC(C)C)C(=O)N[C@@H](Cc2ccc(OC)c(C(=O)NC)c2)C(=O)N(C)[C@@H](CC(C)C)C(=O)N(C)[C@@H](CC(C)C)C(=O)N[C@H](C(=O)N2CCCCC2)CC(=O)N[C@H](CC(C)C)C(=O)N(C)[C@@H](Cc2ccccc2)C(=O)N[C@@H](C(C)C)C(=O)N(C)[C@@H](CC(C)C)C(=O)N[C@@H]([C@@H](C)O)C1=O [AP36] ([dL][NMeF]V[NMeL]T[NBuGly][NMeL][Phe(3-CONHMe,4-OMe)][NMeL][NMeL]D-Piperidide; lactam N-11) | 0.26
CCCCN1CC(=O)N(C)[C@@H](Cc2ccccc2)C(=O)N[C@@H]([C@@H](C)CC)C(=O)N(C)[C@@H](CC(C)C)C(=O)N[C@@H]([C@@H](C)O)C(=O)N(CCC)CC(=O)N(C)[C@@H](Cc2ccccc2)C(=O)N(C)[C@@H](CC(C)C)C(=O)NC[C@@H](COCCO)C(=O)N(C)[C@@H](CC(C)C)C(=O)N[C@H](C(=O)N2CCCCC2)CC1=O [AP134] ([NBuGly][NMeF]I[NMeL]T[NPrGly][NMeF][NMeL][X9][NMeL]D-Piperidide; lactam N-11) | 0.62
CC[C@H](C)C1C(=O)N[C@@H]([C@@H](C)O)C(=O)N(C)CC(=O)N(C)[C@@H](CC(C)C)C(=O)N[C@H](C(=O)N2CCCCC2)CC(=O)N(C)[C@@H](C)C(=O)N[C@@H](CC(C)C)C(=O)N(C)[C@@H](CC(C)C)C(=O)N(C)[C@@H](Cc2c[nH]c3ccccc23)C(=O)N[C@@H](C(C)C)C(=O)N(C)[C@@H](CC(C)C)C(=O)N1C (stereo partly drawn) [pd102] ([NMeA]L[NMeL][NMeW]V[NMeL][NMeξIle]T[Sar][NMeL]D-Piperidide; lactam N-11) | 1.1
CCCCN1CC(=O)N(C)[C@@H](Cc2cccc(Cl)c2)C(=O)N(C)[C@@H](CC(C)C)C(=O)N[C@@H](COCC[C@H](C)O)C(=O)N(C)[C@@H](CC(C)C)C(=O)N[C@H](C(=O)N2CCCCC2)CC(=O)N(C)CC(=O)N(C)[C@@H](Cc2ccccc2)C(=O)N[C@@H](C(C)C)C(=O)N(C)[C@@H](CC(C)C)C(=O)N[C@@H]([C@@H](C)O)C1=O [AP106] ([Sar][NMeF]V[NMeL]T[NBuGly][NMePhe(3-Cl)][NMeL]S(Butyl(3S-OH))[NMeL]D-Piperidide; lactam N-11) | 0.25
CC[C@@H]1NC(=O)[C@H](CC(C)C)N(C)C(=O)[C@H](Cc2ccccc2)N(C)C(=O)CN(C)C(=O)[C@H](Cc2ccc(C(=O)NS(C)(=O)=O)c(OC)c2)NC(=O)[C@H](CC(C)C)N(C)C(=O)[C@H](C(C)C)NC(=O)[C@H](CC(C)C)N(C)C(=O)CN(C)C(=O)C[C@@H](C(=O)N2CCCCC2)NC(=O)[C@H](CC(C)C)N(C)C1=O [AP143] ([Sar][NMeL]V[NMeL][Phe(3-OMe,4-CONHMs)][Sar][NMeF][NMeL][Abu][NMeL]D-Piperidide; lactam N-11) | 0.13
CC(C)C[C@H]1C(=O)N[C@@H](COC(C)(C)C)C(=O)N(C)[C@@H](Cc2ccccc2)C(=O)N(C)[C@@H](C(C)C)C(=O)N[C@H](C(=O)N2CCCCC2)CC(=O)N[C@H](C(C)C)C(=O)N(C)[C@@H](C)C(=O)N[C@@H](C(C)C)C(=O)N(C)[C@@H](CC(C)C)C(=O)N[C@@H](Cc2ccc(O)cc2)C(=O)N(C)CC(=O)N1C [pd121] ([dV][NMeA]V[NMeL]Y[Sar][NMeL]S(tBu)[NMeF][NMeV]D-Piperidide; lactam N-11) | 1
CC[C@H](C)[C@@H]1NC(=O)[C@H](CC(C)C)N(C)C(=O)CCCN(C)C(=O)C[C@@H](C(=O)N2CCCCC2)NC(=O)[C@H](CC(C)C)N(C)C(=O)[C@H](CC(C)C)N(C)C(=O)[C@H]([C@@H](C)O)NC(=O)[C@H](CC(C)C)N(C)C(=O)[C@H](Cc2ccc(C(=O)NS(C)(=O)=O)c(OC)c2)NC(=O)[C@H](CC(C)C)N(C)C(=O)[C@H](Cc2ccccc2)N(C)C1=O [AP138] ([NMeGABA][NMeL]I[NMeF][NMeL][Phe(3-OMe,4-CONHMs)][NMeL]T[NMeL][NMeL]D-Piperidide; lactam N-11) | 0.06
CC[C@H]1C(=O)N[C@@H](CC(C)C)C(=O)N(C)[C@@H](CC(C)C)C(=O)N(C)[C@@H](Cc2ccccc2)C(=O)N[C@@H](CCCCO)C(=O)N(C)[C@@H](CCc2ccccc2)C(=O)N(C)[C@@H](CC(C)C)C(=O)N[C@@H]([C@@H](C)O)C(=O)N(C)CC(=O)N(C)[C@@H](CC(C)C)C(=O)N[C@H](C(=O)N2CCCCC2)CC(=O)N1C [Compound B06] ([NMeAbu]L[NMeL][NMeF][X6][NMehPhe][NMeL]T[Sar][NMeL]D-Piperidide; lactam N-11) | 0.39
CC(C)C[C@@H]1NC(=O)[C@H](Cc2ccccc2)N(C)C(=O)[C@@H](C(C)C)NC(=O)C[C@@H](C(=O)N2CCCCC2)NC(=O)[C@H](CC(C)C)N(C)C(=O)[C@H](Cc2cccc(Cl)c2)N(C)C(=O)[C@H](COC[C@@H](C)O)NC(=O)[C@H](CC(C)C)N(C)C(=O)CN(C)C(=O)[C@H]([C@@H](C)O)NC(=O)[C@H](CC(C)C)N(C)C1=O [AP72] ([dV][NMeF]L[NMeL]T[Sar][NMeL]S(Propyl(2R-OH))[NMePhe(3-Cl)][NMeL]D-Piperidide; lactam N-11) | 0.95
CC(C)C[C@H]1C(=O)N[C@@H](C(C)C)C(=O)N(C)[C@@H](Cc2ccccc2)C(=O)N(C)[C@@H](Cc2ccccc2)C(=O)N[C@@H](COC(C)(C)C)C(=O)N(C)[C@@H](CC(C)C)C(=O)N[C@@H](COC[C@@H](C)O)C(=O)N(C)[C@@H](CC(C)C)C(=O)N(C)[C@@H](CC(C)C)C(=O)N[C@H](C(=O)N2CCCCC2)CC(=O)N(C)CCCC(=O)N1C [AP83] ([NMeGABA][NMeL]V[NMeF][NMeF]S(tBu)[NMeL]S(Propyl(2R-OH))[NMeL][NMeL]D-Piperidide; lactam N-11) | 1.3
CCCCN1CC(=O)N(C)[C@@H](Cc2ccccc2)C(=O)N(C)[C@@H](C(C)C)C(=O)N[C@@H](COC(C)(C)C)C(=O)N(C)[C@@H](CC(C)C)C(=O)N[C@H](C(=O)N2CCCCC2)CC(=O)N(C)CC(=O)N(N)[C@@H](Cc2cccc(Cl)c2)C(=O)N[C@@H](COCC[C@H](C)O)C(=O)N(C)[C@@H](CC(C)C)C(=O)N[C@@H]([C@@H](C)O)C1=O [AP105] ([Sar][X18]S(Butyl(3S-OH))[NMeL]T[NBuGly][NMeF][NMeV]S(tBu)[NMeL]D-Piperidide; lactam N-11) | 0.55

same assay, conditions: human, Caco-2, Caco-2 (cm/sec) Papp

Compound | Papp [×10⁻⁶ cm/s]
CC(C)C[C@H]1C(=O)N(C)[C@@H](Cc2ccccc2)C(=O)N(C)[C@@H](Cc2ccccc2)C(=O)N[C@@H]([C@@H](C)O)C(=O)N(C)[C@@H](C)C(=O)N(C)[C@@H](Cc2ccccc2)C(=O)N[C@H](C(=O)N2CCCCC2)CC(=O)N(C)[C@@H](C)C(=O)N(C)[C@@H](CC(C)C)C(=O)N(C)[C@@H](Cc2ccccc2)C(=O)N[C@@H](C)C(=O)N1C [pd232] ([NMeA][NMeL][NMeF]A[NMeL][NMeF][NMeF]T[NMeA][NMeF]D-Piperidide; lactam N-11) | 0.19

— patent US20230096766A1, “AMINO ACID HAVING FUNCTIONAL GROUP CAPABLE OF INTERMOLECULAR HYDROGEN BONDING, PEPTIDE COMPOUND CONTAINING SAME AND METHOD FOR PRODUCTION THEREOF” (Chugai Seiyaku Kabushiki Kaisha, priority 2018, published 2023)
